Source: patent US10857112B2, “Small molecule inhibitors of RNA binding motif (RBM) proteins for the treatment of acute cellular injury” (University of Pittsburgh—Of the Commonwealth System of …, priority 2012, dated 2020)

Legend:
[1] = test system: C57BL6 mice, severe CCI brain injury; experiment: Controlled cortical impact (TBI) injury, hippocampal volume; format: in vivo
Method: AQ2S was prepared in 2% DMSO in PBS (i.e. vehicle). C57BL6 mice were administered a severe CCI brain injury. Severe brain trauma was induced by a pneumatic impactor device that delivers a defined cortical injury (impact depth, 1.6 mm; impact velocity, 5 m/s). 15 minutes after injury animals were given a 5 μL intracerebroventricular injection with either vehicle (n=7) or 500 μM AQ2S (n=7). The 5 μL injection volume was delivered at a rate of 0.5 μL/minute. […] A second vehicle or AQ2S injection was administered 24 hours after injury. […] 3 days after injury animals were sacrificed, perfused with a fixative, brains sectioned, and stained with hematoxylin and eosin (H&E). Images were captured using a light microscope and camera.
Mice were given surgical/treatment protocols and hippocampal tissue analyzed 3 days later. […] (D) Left (injured) and right (non-injured) hippocampal volumes were quantified for each mouse; sham (n=5), vehicle CCI injury (n=7), and AQ2S CCI injury (n=7). FIG. 23D show left hippocampal volumes (expressed as % of uninjured right hippocampus).

mice = settings: intraperitoneal; cited from earlier work
rats = settings: intraperitoneal; cited from earlier work
4-HNE = experiment: Lipid peroxidation (4-HNE western blot) in neurons; format: cell-based, rat
Method: To test if AQ2S promotes lipid peroxidation in neurons, at D.I.V. 12, culture media was exchanged with Neurobasal/B27 (−AO) in the absence or presence of […] for 48 hours. D.I.V. 14 neurons were harvested and analyzed for 4-HNE levels.
Injury (e.g. brain ischemia), robustly increases endogenous reactive oxygen species (ROS) levels. ROS may promote the formation of deleterious quinone radicals and increase lipid peroxidation. The potential enhancement by AQ2S of lipid peroxidation induced by 200 μM H2O2 was evaluated. D.I.V. 13 neurons were treated for 4.5 hours with 200 μM H2O2 in fresh neurobasal/B27 (−AO) in the presence or absence of 125 μM AQ2S. 200 μM H2O2 increased 4-HNE levels. The asterisk in FIG. 17b indicates an approximate 40-45 KDa band, particularly, sensitive to treatment.
Neurons used for Western blot analysis for grown in 6-well plates. Briefly, neurons were treated with experimental compounds for the indicated time/conditions. At the end of each experiment, neurons were washed in ice cold PBS and harvested in 65 μL RIPA buffer containing protease inhibitors, phosphatase inhibitors, and EDTA. Extracts were collected in 0.5 mL tubes and sonicated for 20-30 seconds. Cell extracts were then spun at 4° C./16,000 g/10 minutes and stored at −80° C. until use. Frozen extracts were thawed on ice and protein concentration measured using the BCA assay (PIERCE). […]

AKT = experiment: Western blot of AKT activation (pAKT473); format: cell-based, rat
Method: AKT is a key pro-survival kinase that is dysregulated by acute brain injury. Many diverse therapies used to prevent neuronal death activate AKT, including small molecules, endogenously derived survival proteins, and other non-pharmacology based treatments like therapeutic hypothermia. To further elucidate the mechanisms of AQ2S-mediated neuroprotection, the level of activated (phosphorylated) AKT was measured by western blot.
Neurons used for Western blot analysis for grown in 6-well plates. Briefly, neurons were treated with experimental compounds for the indicated time/conditions. At the end of each experiment, neurons were washed in ice cold PBS and harvested in 65 μL RIPA buffer containing protease inhibitors, phosphatase inhibitors, and EDTA. Extracts were collected in 0.5 mL tubes and sonicated for 20-30 seconds. Cell extracts were then spun at 4° C./16,000 g/10 minutes and stored at −80° C. until use. Frozen extracts were thawed on ice and protein concentration measured using the BCA assay (PIERCE). […] of sample protein was loaded per well of a 7.5% SDS precast gel (Biorad), and run for 30 minutes to 1 hour at 200 V. Kaleidoscope protein standards (Biorad) were run parallel to neuron extracts. Proteins were then transferred to PDVF membranes (run at 100 V/4° C./1.5 hours). PDVF membranes were washed once in tris buffered saline (TBS) and blocked for 1 hour in tris buffered saline/tween-20 with 7.5% nonfat milk (TBS-T/milk). Blots were incubated overnight at 4° C. with primary antibodies in TBS-T/milk. Cell Signaling Technology: phospho-AKT473, AKT Total, phospho-ERK1/2, ERK Total, cleavage caspase-3. Santa Cruz Antibodies: NF-κB p50 subunit, NF-κB p65 subunit, and beta actin. Calbiochem: 4-HNE antibody. Blots were washed 3 times (5 minutes each) with TBS, and incubated with secondary antibodies for 2 hours. Invitrogen: goat anti-rabbit or goat anti-mouse. Blots were washed 3 times (5 minutes each) with TBS, and incubated for 1 minute in HRP detection solution (Amersham). Films were exposed to blots and developed (SRX-101A, Konica Minolta Medical & Graphic Inc.). Re-probed blots (e.g. beta actin, AKT total, ERK total) were stripped in western blot stripping buffer (Fischer Scientific) for 10 minutes, washed once with TBS, re-blocked in TBS-T/milk for 1 hour, and incubated overnight with new primary antibody. Films were scanned (EPSON GT 20,000), and densitometry performed using UN-SCAN-IT software (Silk Scientific).

[2] = test system: primary rat cortical neurons; experiment: Ischemia (OGD) injury, neuron viability; format: cell-based; settings: 1 hour OGD; 75 μM during and after injury; 24 hours
Method: AQ2S was dissolved in 100% DMSO (vehicle). Rat cortical neurons were isolated from E17 embryos, and seeded onto 96-well plates at a density of 7.5×10^4/well. At D.I.V. 10-11 culture maintenance media was replaced with treatment media (Modified Eagles Buffered Solution) without or with 25 μM Glucose. In addition, neurons were incubated with or without oxygen (induced by placement of cell plates in an anoxic chamber flushed with a gas mixture to remove oxygen). OGD injury was administered for 1 hour. […] Neuron viability was measured 24 hours post-injury by incubation with CellTiter Blue reagent (PROMEGA) for 3.5 hours. CellTiter Blue is metabolized into a fluorescent reagent only in living cells. The level of fluorescence (expressed as relative fluorescent units; RFU) was measured on a plate reader (PROMEGA).
Primary rat cortical neurons were grown onto 96-well plates. Neurons were injured by a 1 hour treatment with/without 25 μM glucose and with/without oxygen. DMSO or 75 μM AQ2S were added to OGD treatment media during the 1 h ischemic injury period. After 1 hour injury, cells were returned to regular growth media and normoxic culture conditions (i.e. 95% […]/5% CO2) with either DMSO or 75 μM AQ2S. Cell viability was measured 24 hours later and expressed as relative fluorescent units (RFU). […] Data were analyzed by ANOVA (p<0.0001); Fisher LSD post-hoc test. * indicates p<0.05. […]

[3] = molecular target: T1, recombinant active caspase-3 (Homo sapiens, UniProt P42574); experiment: In vitro cell-free caspase-3 drug screening assay (DEVD-AFC); format: biochemical
T1 construct: The reaction mixture was combined with recombinant active caspase-3 and a DEVD-AFC probe; purchased PromoKine (Heidelberg, Germany)
T1 sequence (P42574 29-175 limits assumed): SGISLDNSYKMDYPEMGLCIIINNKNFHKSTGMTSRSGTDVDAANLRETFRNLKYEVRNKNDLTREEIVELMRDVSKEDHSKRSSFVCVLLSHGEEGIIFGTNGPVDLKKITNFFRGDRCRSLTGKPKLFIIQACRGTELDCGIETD
T1 sequence (P42574 176-277 limits assumed): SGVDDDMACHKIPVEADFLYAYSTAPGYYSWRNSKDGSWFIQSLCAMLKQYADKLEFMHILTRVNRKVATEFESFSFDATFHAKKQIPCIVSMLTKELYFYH
Method: An in vitro caspase drug screening kit was purchased from PromoKine (Heidelberg, Germany), and used according to the manufacturer's instructions. Briefly, all drugs were dissolved in DMSO and diluted in double-distilled water to desired concentration. The reaction mixture was combined with recombinant active caspase-3 and a DEVD-AFC probe. Active caspase-3 cleaves the DEVD-recognition sequence and releases fluorescent AFC. The amount of AFC detected is a measure of caspase-3 activity. Reactions were prepared in black-walled 96-well plates, incubated at 37° C., and AFC release measured with an AFC filter (Ex: 405 nm, Em: 495-505 nM) on a GLOMax-Multi Microplate Reader (Promega).

Structure (SMILES): O=C1c2ccccc2C(=O)c2cc(S(=O)(=O)O)ccc21 [AQ2S, anthraquinone-2-sulfonic acid]
- left hippocampal volume (% of uninjured right hippocampus) ([1]; 5 μL 500 μM intracerebroventricular 15 minutes and 24 hours after CCI, 3 days): not significantly (N.S.) different from Sham animals
- estimated final tissue AQ2S concentration ([1]; 5 μL of 500 μM icv, extrapolated from total CSF volume in mice (35 μL), unit of the source corrected): ~71 µM
- Acute LD50 (mice): 630 mg/kg
- Acute LD50 (rats): 730 mg/kg
- 4-HNE staining (4-HNE; 200 μM H2O2 4.5 hours, 125 μM): did not significantly up-regulate 4-HNE staining
- basal level of 4-HNE (4-HNE; uninjured, 125 AQ2S 48 hours): did not significantly increase the basal level of 4-HNE
- pAKT473 (AKT; 250 nM STS 6 hours, AQ2S): marginally increased STS-induced pAKT473 at the 6-hour time point, but did not reach statistical significance
- pAKT473 (AKT; 250 nM STS 21 hours, 125 μM AQ2S): pAKT473 increased in the presence of AQ2S
- AKT activity (pAKT473) (AKT; 125 μM, 17 hours STS injury): significant elevation in AKT activity
- ratio of pAKT473/AKT (AKT; 125 μM, 17 hours STS injury): highest in the AQ2S treated group
- AKT total (AKT; non-injury, 125 μM): No effect on AKT total was observed
- pAKT473 (AKT; non-injury, 125 μM, 4 hours): significant (but modest) rise in pAKT473
- pAKT473 (AKT; non-injury, 125 μM, 24 hours): not significant at 24 hours
- viability after ischemic (OGD) injury [2]: significantly increases viability
- activity of recombinant caspase-3 [3]: significantly reduced the activity of recombinant caspase-3
